From patent US7858125B2, “Multi-component biocide composition for wood protection” (priority 2006, dated 2010)
Read-outs that look alike come from different tables or passages of the source.

How the values were obtained:
[1] = system: T. viride; assay: Mold resistance of treated wood stakes (ASTM D4445-91), T. viride; type: cell-based, Trichoderma viride ATCC 20476
Method: (§1) The biocide compositions were first tested for the efficacy in preventing mold fungal growth. […] The mold fungi were first prepared by growing the various mold fungi species on 2% malt agar. […] Spore suspensions were transferred to a spray bottle and diluted to 100 milliliters with DI water. The spray bottle was adjusted to deliver 1 milliliter inoculum/spray.
(§2) The biocide compositions were tested for the efficacy in preventing mold fungal growth and compared to the abilities of the commercially used preservatives, fungicides, extracts, and pharmaceuticals in preventing mold fungal growth.
(§3) Specimens (7×20 millimeters cross section by 7 centimeters long) were cut from unseasoned southern yellow pine mill ends from a Mississippi sawmill and stored at 0° C. […] Southern yellow pine oriented strand board (OSB) specimens (11×20 millimeters cross section by 7 centimeters long) were cut from a full sheet of OSB and conditioned to 70% relative humidity. […] Untreated stakes were dipped in DI water and served as Control A for water-based test chemicals. […]
(§4) The biocide compositions were first tested for the efficacy in preventing mold fungal growth. […]

[2] = system: A. niger; assay: Mold resistance of treated wood stakes (ASTM D4445-91), A. niger; type: cell-based, Aspergillus niger 2.242
Method: as §1, §2, §3, §4

[3] = system: P. chrysogenum; assay: Mold resistance of treated wood stakes (ASTM D4445-91), P. chrysogenum; type: cell-based, Penicillium chrysogenum PH02
Method: as §1, §2, §3, §4

[4] = Example 2, dip-treated unseasoned southern yellow pine, 4 weeks, scale 0-5 (5 = 100% coverage)

Row | Compound | Mold Resistance Average Rating, T. viride [1, 4] | Mold Resistance Average Rating, A. niger [2, 4] | Mold Resistance Average Rating, P. chrysogenum [3, 4] | Mold Resistance Average Rating, T. viride [1] | Mold Resistance Average Rating, A. niger [2] | Mold Resistance Average Rating, P. chrysogenum [3]
1 | O=C([O-])c1ccccc1.[Na+] [Sample 16, Sodium benzoate] | 0.7 | 0.0 | 0.0 |  |  | 
2 | O=C[O-].[Na+] [Sample 25, Sodium formate] | 4.3 | 5.0 | 4.6 |  |  | 
3 | c1ccc2[nH]c(-c3cscn3)nc2c1 [Sample 45, Thiabendazole] | 2.5 | 0.0 | 0.0 |  |  | 
4 | O=C([O-])c1ccccc1.[Na+] [Sample 15, Sodium benzoate] | 0.4 | 0.4 | 0.0 |  |  | 
5 | O=C([O-])c1ccccc1.[Na+] [Sample 14, Sodium benzoate] | 1.0 | 1.7 | 0.0 |  |  | 
6 | Clc1ccc(COC(Cn2ccnc2)c2ccc(Cl)cc2Cl)c(Cl)c1 (stereo not drawn) [Sample 34, Miconazole] | 0.0 | 0.0 | 0.0 |  |  | 
7 | CC(C)c1cccc(O)c(=O)c1 [Sample 30, Thujaplicin (isopropyltropolone)] | 0.0 | 0.0 | 0.0 |  |  | 
8 | C/C=C/C=C/C(=O)[O-].[K+] [Sample 22, Potassium sorbate] |  |  |  | 0.7 | 0.0 | 0.0
9 | O=C[O-].[Na+] [Sample 27, Sodium formate] | 4.0 | 4.7 | 3.3 |  |  | 
10 | c1ccc2[nH]c(-c3cscn3)nc2c1 [Sample 46, Thiabendazole] | 0.0 | 0.0 | 0.0 |  |  | 
11 | C[C@@H](c1ncncc1F)[C@](O)(Cn1cncn1)c1ccc(F)cc1F [Sample 41, Voriconazole] | 2.4 | 0.0 | 0.0 |  |  | 
12 | C[C@@H](c1ncncc1F)[C@](O)(Cn1cncn1)c1ccc(F)cc1F [Sample 44, Voriconazole] | 0.1 | 0.0 | 0.0 |  |  | 
13 | Thujaplicin (isopropyltropolone) [Sample 29] | 1.0 | 5.0 | 0.0 |  |  | 
14 | C/C=C/C=C/C(=O)[O-].[K+] [Sample 21, Potassium sorbate] |  |  |  | 2.9 | 2.6 | 2.6
15 | CCC(=O)[O-].CCC(=O)[O-].[Ca+2] [Sample 18, Calcium propionate] | 4.7 | 5.0 | 5.0 |  |  | 
16 | OC(Cn1cncn1)(Cn1cncn1)c1ccc(F)cc1F [Sample 39, Difluconazole] | 5.0 | 5.0 | 4.7 |  |  | 
17 | C/C=C/C=C/C(=O)[O-].[K+] [Sample 20, Potassium sorbate] |  |  |  | 4.9 | 5.0 | 5.0
18 | O=NO [Sample 28, Sodium nitrite] | 5.0 | 5.0 | 4.9 |  |  | 
19 | c1ccc2[nH]c(-c3cscn3)nc2c1 [Sample 47, Thiabendazole] | 0.0 | 0.0 | 0.0 |  |  | 
20 | CCC(=O)[O-].CCC(=O)[O-].[Ca+2] [Sample 17, Calcium propionate] | 4.6 | 5.0 | 4.9 |  |  | 
21 | Clc1ccccc1C(c1ccccc1)(c1ccccc1)n1ccnc1 [Sample 40, Clotrimazole] | 3.7 | 5.0 | 3.4 |  |  | 
22 | CCC(=O)[O-].CCC(=O)[O-].[Ca+2] [Sample 19, Calcium propionate] | 3.3 | 0.9 | 2.0 |  |  | 
23 | O=C[O-].[Na+] [Sample 26, Sodium formate] | 4.1 | 5.0 | 4.7 |  |  | 
24 | C/C=C/C=C/C(=O)[O-].[K+] [Sample 23, Potassium sorbate] |  |  |  | 1.0 | 0.0 | 0.0
25 | C/C=C/C=C/C(=O)[O-].[K+] [Sample 24, Potassium sorbate] |  |  |  | 0.0 | 0.0 | 1.7
26 | C[C@@H](c1ncncc1F)[C@](O)(Cn1cncn1)c1ccc(F)cc1F [Sample 42, Voriconazole] | 1.3 | 0.0 | 0.0 |  |  | 
27 | C[C@@H](c1ncncc1F)[C@](O)(Cn1cncn1)c1ccc(F)cc1F [Sample 43, Voriconazole] | 0.4 | 0.1 | 0.0 |  |  | 
28 | O=C([O-])c1ccccc1.[Na+] [Sample 13, Sodium benzoate] | 3.1 | 2.9 | 2.4 |  |  | 
